Converted amounts (≈) assume the structure as drawn.
Experiments:
Format in all cases: cell-based
Bacillus subtilis A = assay: MIC in agar; conditions: in agar; Bacillus subtilis A; read-out: M.I.C.
From the text: (§1) a. Antibacterial effectiveness of compounds of
(§2) Examples 6 and 7 in agar.
(§3) (μg/ml) in agar of compound

Citrobacter freundii E8 = assay: MIC in agar; conditions: in agar; Citrobacter freundii E8; read-out: M.I.C.
From the text: as §1, §2, §3

Enterobacter cloacae N1 = assay: MIC in agar; conditions: in agar; Enterobacter cloacae N1; read-out: M.I.C.
From the text: as §1, §2, §3

Escherichia coli 0111 = assay: MIC in agar
From the text: as §1, §2, §3

Escherichia coli JT39 = assay: MIC in agar; conditions: Escherichia coli, JT39
From the text: as §1, §2, §3

Klebsiella aerogenes A = assay: MIC in agar; conditions: in agar; Klebsiella aerogenes A; read-out: M.I.C.
From the text: as §1, §2, §3

Proteus mirabilis C977 = assay: MIC in agar; conditions: in agar; Proteus mirabilis C977; read-out: M.I.C.
From the text: as §1, §2, §3

Proteus rettgeri WM16 = assay: MIC in agar; conditions: Providencia rettgeri; in agar; Proteus rettgeri WM16; read-out: M.I.C.
From the text: as §1, §2, §3

Proteus vulgaris W091 = assay: MIC in agar; conditions: in agar; Proteus vulgaris W091; read-out: M.I.C.
From the text: as §1, §2, §3

Pseudomonas aeruginosa A = assay: MIC in agar; conditions: in agar; Pseudomonas aeruginosa A; read-out: M.I.C.
From the text: as §1, §2, §3

[1] = test system: Salmonella typhimurium CT10; assay: MIC in agar; conditions: Salmonella enterica; in agar; Salmonella typhimurium CT10; read-out: M.I.C.
From the text: as §1, §2, §3

Serratia marcescens US20 = assay: MIC in agar; conditions: in agar; Serratia marcescens US20; read-out: M.I.C.
From the text: as §1, §2, §3

Shigella sonnei MB 11967 = assay: MIC in agar; conditions: MB11967
From the text: as §1, §2, §3

[2] = test system: Staphylococcus aureus 1517; assay: MIC in agar; conditions: in agar; Staphylococcus aureus 1517; read-out: M.I.C.
From the text: as §1, §2, §3

[3] = test system: Staphylococcus aureus Oxford; assay: MIC in agar; conditions: in agar; Staphylococcus aureus Oxford; read-out: M.I.C.
From the text: as §1, §2, §3

Streptococcus faecalis I = assay: MIC in agar; conditions: Enterococcus faecalis; in agar; Streptococcus faecalis I; read-out: M.I.C.
From the text: as §1, §2, §3

[4] = test system: Streptococcus pneumoniae CN33; assay: MIC in agar
From the text: as §1, §2, §3

[5] = test system: Streptococcus pyogenes CN10; assay: MIC in agar; conditions: in agar; Streptococcus pyogenes CN10; read-out: M.I.C.
From the text: as §1, §2, §3

E. coli ESS = assay: MIC in agar; conditions: Escherichia coli
From the text: | (μg/ml) in agar of compound

[6] = test system: Bacteroides fragilis 2118; assay: Antibacterial effectiveness in agar; conditions: Bacteroides fragilis, 2118
From the text: (§4) b. Antibacterial effectiveness of the compound of […]

Bacteroides fragilis B3 = assay: Antibacterial effectiveness in agar; conditions: Bacteroides fragilis, B3
From the text: as §4

[7] = test system: Bacteroides fragilis BC16; assay: Antibacterial effectiveness in agar; conditions: Bacteroides fragilis, BC16
From the text: as §4

Bacteroides fragilis BC4 = assay: Antibacterial effectiveness in agar; conditions: Bacteroides fragilis, BC4
From the text: as §4

[8] = test system: Bacteroides fragilis VP1 8249; assay: Antibacterial effectiveness in agar; conditions: Bacteroides fragilis, VP18249
From the text: as §4

[9] = test system: Bacteroides fragilis WS12; assay: Antibacterial effectiveness in agar; conditions: Bacteroides fragilis, WS12
From the text: as §4

Bacteroides fragilis WS1 = assay: Antibacterial effectiveness in agar; conditions: Bacteroides fragilis, WS1
From the text: as §4

[10] = test system: Bacteroides fragilis WS41; assay: Antibacterial effectiveness in agar; conditions: Bacteroides fragilis, WS41
From the text: as §4

[11] = test system: Citrobacter freundii T221; assay: Antibacterial effectiveness in agar; conditions: Citrobacter freundii, T221
From the text: as §4

Citrobacter freundii W18 = assay: Antibacterial effectiveness in agar; conditions: Citrobacter freundii, W18
From the text: as §4

[12] = test system: Enterbacter aerogenes NCTC 10006; assay: Antibacterial effectiveness in agar
From the text: as §4

[13] = test system: Enterbacter aerogenes T660; assay: Antibacterial effectiveness in agar
From the text: as §4

[14] = test system: Enterobacter cloacea NCTC 10005; assay: Antibacterial effectiveness in agar; conditions: Enterobacter, NCTC10005
From the text: as §4

[15] = test system: Enterobacter cloacea T749; assay: Antibacterial effectiveness in agar; conditions: Enterobacter, T749
From the text: as §4

Escherichia coli 5 = assay: Antibacterial effectiveness in agar; conditions: Escherichia coli, 5
From the text: as §4

Escherichia coli Ba78R+ = assay: Antibacterial effectiveness in agar; conditions: Escherichia coli
From the text: as §4

Escherichia coli E8 = assay: Antibacterial effectiveness in agar; conditions: Escherichia coli, E8
From the text: as §4

Escherichia coli E96R+ = assay: Antibacterial effectiveness in agar
From the text: as §4

Escherichia coli JT1 = assay: Antibacterial effectiveness in agar; conditions: Escherichia coli, JT1
From the text: as §4

Escherichia coli JT20R+ = assay: Antibacterial effectiveness in agar
From the text: as §4

Escherichia coli JT414C+ = assay: Antibacterial effectiveness in agar; conditions: Escherichia coli
From the text: as §4

Escherichia coli JT425C+ = assay: Antibacterial effectiveness in agar; conditions: Escherichia coli
From the text: as §4

Escherichia coli JT4R+ = assay: Antibacterial effectiveness in agar
From the text: as §4

[16] = test system: Escherichia coli NCTC 15418; assay: Antibacterial effectiveness in agar; conditions: Escherichia coli, NCTC15418
From the text: as §4

[17] = test system: Klebsiella aerogenes I281; assay: Antibacterial effectiveness in agar; conditions: Klebsiella aerogenes, I281
From the text: as §4

[18] = test system: Klebsiella aerogenes R112; assay: Antibacterial effectiveness in agar; conditions: Klebsiella aerogenes, R112
From the text: as §4

[19] = test system: Klebsiella aerogenes T219; assay: Antibacterial effectiveness in agar; conditions: Klebsiella aerogenes, T219
From the text: as §4

[20] = test system: Klebsiella aerogenes Va2R+; assay: Antibacterial effectiveness in agar; conditions: Klebsiella aerogenes
From the text: as §4

Proteus mirabilis 889 = assay: Antibacterial effectiveness in agar; conditions: Proteus mirabilis, 889
From the text: as §4

Proteus mirabilis T318 = assay: Antibacterial effectiveness in agar; conditions: Proteus mirabilis, T318
From the text: as §4

Proteus morganii I = assay: Antibacterial effectiveness in agar; conditions: Morganella morganii
From the text: as §4

Proteus morganii T361 = assay: Antibacterial effectiveness in agar; conditions: Morganella morganii, T361
From the text: as §4

Proteus rettgeri I = assay: Antibacterial effectiveness in agar; conditions: Providencia rettgeri
From the text: as §4

Proteus rettgeri R110 = assay: Antibacterial effectiveness in agar; conditions: Providencia rettgeri, R110
From the text: as §4

[21] = test system: Proteus vulgaris NCTC 4395; assay: Antibacterial effectiveness in agar; conditions: Proteus vulgaris, NCTC4395
From the text: as §4

Proteus vulgaris X = assay: Antibacterial effectiveness in agar; conditions: Proteus vulgaris
From the text: as §4

[22] = test system: Pseudomonas aeruginosa Dalgleish; assay: Antibacterial effectiveness in agar; conditions: Pseudomonas aeruginosa
From the text: as §4

[23] = test system: Pseudomonas aeruginosa NCTC 10662; assay: Antibacterial effectiveness in agar; conditions: Pseudomonas aeruginosa, NCTC10662
From the text: as §4

[24] = test system: Pseudomonas aeruginosa W975; assay: Antibacterial effectiveness in agar; conditions: Pseudomonas aeruginosa, W975
From the text: as §4

Serratia marcescens SM27 = assay: Antibacterial effectiveness in agar; conditions: Serratia marcescens, SM27
From the text: as §4

[25] = test system: Serratia marcescens Wo146; assay: Antibacterial effectiveness in agar; conditions: Serratia marcescens, WO146
From the text: as §4

[26] = test system: Staphylococcus aureus ATCC 25923; assay: Antibacterial effectiveness in agar; conditions: Staphylococcus aureus, ATCC25923
From the text: as §4

[27] = test system: Staphylococcus aureus ME9+; assay: Antibacterial effectiveness in agar; conditions: Staphylococcus aureus
From the text: as §4

[28] = test system: Staphylococcus aureus Smith; assay: Antibacterial effectiveness in agar; conditions: Staphylococcus aureus
From the text: as §4

[29] = test system: Staphylococcus aureus T150+; assay: Antibacterial effectiveness in agar; conditions: Staphylococcus aureus
From the text: as §4

[30] = test system: Staphylococcus aureus T67+; assay: Antibacterial effectiveness in agar; conditions: Staphylococcus aureus
From the text: as §4

[31] = test system: Streptococcus faecalis C90; assay: Antibacterial effectiveness in agar; conditions: Enterococcus faecalis, C90
From the text: as §4

[32] = test system: Streptococcus faecalis T1101; assay: Antibacterial effectiveness in agar; conditions: Enterococcus faecalis, T1101
From the text: as §4

Question: How did the MIC (Bacillus subtilis A) turn out when `C[C@H](O)[C@@H]1C(=O)N2C(C(=O)O)=C(S/C=C\C(=O)OCCN)C[C@H]12` [Example 20, (5R,6R)-3-[2-(Z)-(2-Aminoethoxycarbonyl)ethenylthio]-6-[(S)-1-hydroxyethyl]-7-oxo-1-azabicyclo[3.2.0]hept-2-ene-2-carboxylic acid] was run?
Answer: Its MIC is no more than 0.1 µg/mL.

Question: What about the MIC (Citrobacter freundii E8) of the same molecule?
Answer: Its MIC is 0.2 µg/mL (≈ 0.584 µM).

Question: What about the MIC (Enterobacter cloacae N1) of the same molecule?
Answer: Its MIC is 0.2 µg/mL (≈ 0.584 µM).

Question: And the MIC (Escherichia coli 0111)?
Answer: The MIC was no more than 0.1 µg/mL.

Question: And the MIC (Escherichia coli JT39)?
Answer: Its MIC is 0.2 µg/mL (≈ 0.584 µM).

Question: What about the MIC (Klebsiella aerogenes A) of the same molecule?
Answer: The MIC was no more than 0.1 µg/mL.

Question: What about the MIC (Proteus mirabilis C977) of the same molecule?
Answer: The MIC was 0.4 µg/mL (≈ 1.17 µM).

Question: And the MIC (Proteus rettgeri WM16)?
Answer: The MIC was 0.2 µg/mL (≈ 0.584 µM).

Question: And the MIC (Proteus vulgaris W091)?
Answer: The MIC was 0.4 µg/mL (≈ 1.17 µM).

Question: And the MIC (Pseudomonas aeruginosa A)?
Answer: The MIC was 25 µg/mL (≈ 73 µM).

Question: What about the MIC [1] of the same molecule?
Answer: Its MIC is no more than 0.1 µg/mL.

Question: And the MIC (Serratia marcescens US20)?
Answer: The MIC was no more than 0.1 µg/mL.

Question: What about the MIC (Shigella sonnei MB 11967) of the same molecule?
Answer: Its MIC is 0.2 µg/mL (≈ 0.584 µM).

Question: What about the MIC [2] of the same molecule?
Answer: Its MIC is 0.2 µg/mL (≈ 0.584 µM).

Question: And the MIC [3]?
Answer: Its MIC is no more than 0.1 µg/mL.

Question: What about the MIC (Streptococcus faecalis I) of the same molecule?
Answer: The MIC was no more than 0.1 µg/mL.

Question: What about the MIC [4] of the same molecule?
Answer: Its MIC is no more than 0.1 µg/mL.

Question: And the MIC [5]?
Answer: Its MIC is no more than 0.1 µg/mL.

Question: And the MIC (E. coli ESS)?
Answer: Its MIC is no more than 0.1 µg/mL.

Question: What does the source list for `CCSC1=C(C(=O)[O-])N2C(=O)[C@@H]([C@H](C)OS(=O)(=O)[O-])[C@H]2C1.[Na+].[Na+]` [Example 14, Disodium (5R,6R)-3-ethylthio-6-[(S)-1-sulphonato-oxyethyl]-7-oxo-1-azabicyclo[3.2.0]hept-2-ene-2-carboxylate]?
Answer: MIC [6]: 0.2 µg/mL; MIC (Bacteroides fragilis B3): 0.4 µg/mL; MIC [7]: 1.6 µg/mL; MIC (Bacteroides fragilis BC4): 0.8 µg/mL; MIC [8]: 0.4 µg/mL; MIC [9]: 0.2 µg/mL; MIC (Bacteroides fragilis WS1): 6.2 µg/mL; MIC [10]: 0.2 µg/mL; MIC [11]: 1.6 µg/mL; MIC (Citrobacter freundii W18): 1.6 µg/mL; MIC [12]: 0.4 µg/mL; MIC [13]: 0.2 µg/mL; MIC [14]: 6.2 µg/mL; MIC [15]: 6.2 µg/mL; MIC (Escherichia coli 5): ≤ 0.1 µg/mL; MIC (Escherichia coli Ba78R+): 0.2 µg/mL; MIC (Escherichia coli E8): ≤ 0.1 µg/mL; MIC (Escherichia coli E96R+): ≤ 0.1 µg/mL; MIC (Escherichia coli JT1): ≤ 0.1 µg/mL; MIC (Escherichia coli JT20R+): 0.8 µg/mL; MIC (Escherichia coli JT414C+): 0.2 µg/mL; MIC (Escherichia coli JT425C+): ≤ 0.1 µg/mL; MIC (Escherichia coli JT4R+): 0.4 µg/mL; MIC [16]: ≤ 0.1 µg/mL; MIC [17]: ≤ 0.1 µg/mL; MIC [18]: ≤ 0.1 µg/mL; MIC [19]: ≤ 0.1 µg/mL; MIC [20]: 0.8 µg/mL; MIC (Proteus mirabilis 889): 0.8 µg/mL; MIC (Proteus mirabilis T318): 0.4 µg/mL; MIC (Proteus morganii I): 0.4 µg/mL; MIC (Proteus morganii T361): 0.4 µg/mL; MIC (Proteus rettgeri I): 0.4 µg/mL; MIC (Proteus rettgeri R110): 0.2 µg/mL; MIC [21]: 0.2 µg/mL; MIC (Proteus vulgaris X): 0.4 µg/mL; MIC [22]: 50 µg/mL; MIC [23]: 50 µg/mL; MIC [24]: 100 µg/mL; MIC (Serratia marcescens SM27): 0.4 µg/mL; MIC [25]: 1.6 µg/mL; MIC [26]: 0.4 µg/mL; MIC [27]: 1.6 µg/mL; MIC [28]: 0.4 µg/mL; MIC [29]: 0.4 µg/mL; MIC [30]: 0.8 µg/mL; MIC [31]: 12.5 µg/mL; MIC [32]: 12.5 µg/mL

Source: US4473578A, “β-Lactam antibiotics and their use” (Beecham Group Limited, priority 1979, dated 1984)
